From BindingDB's records for doi:10.1021/jm030418i (Abbott Laboratories, 2004)

Target: Gonadotropin-releasing hormone receptor (Rattus norvegicus) (UniProt P30969)
Experiment: In vitro binding affinity was determined against rat Luteinizing hormone-releasing hormone (LHRH) receptor cloned in CHO cells

Gonadotropin-releasing hormone receptor (Rattus norvegicus), sequence (P30969 whole entry, looked up): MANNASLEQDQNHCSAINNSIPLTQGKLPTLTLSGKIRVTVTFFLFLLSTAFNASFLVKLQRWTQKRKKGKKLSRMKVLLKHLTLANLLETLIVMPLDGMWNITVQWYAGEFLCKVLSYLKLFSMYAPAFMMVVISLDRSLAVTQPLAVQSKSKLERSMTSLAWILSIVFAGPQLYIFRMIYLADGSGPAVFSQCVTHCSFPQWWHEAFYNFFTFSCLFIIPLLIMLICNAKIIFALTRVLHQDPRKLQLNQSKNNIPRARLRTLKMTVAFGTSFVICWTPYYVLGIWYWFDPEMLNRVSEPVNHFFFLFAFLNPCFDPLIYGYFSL

Ki: 51 nM
Compound: CC[C@H]1OC(=O)[C@H](C)[C@@H](OC(=O)N2CCOC2)[C@H](C)[C@@H](OC2O[C@H](C)C[C@H](N(C)C(C)C)[C@H]2O)[C@@](C)(OC)C[C@@H](C)C(=O)[C@H](C)[C@H]2N(CCc3ccc(Cl)cc3)C(=O)O[C@]12C (stereo partly specified)
